Experimental data taken from article PMC9863562, “Design, Synthesis, and Biological Evaluation of 2-Mercaptobenzoxazole Derivatives as Potential Multi-Kinase Inhibitors” (Pharmaceuticals, 2023).

Columns and labels:
[1] = tested on: MDA-MB-231 cells (breast cancer); experiment: MTT cytotoxicity assay, MDA-MB-231; format: cell-based; conditions: Homo sapiens, 24 h treatment, read-out: In Vitro Cytotoxicity IC50 MDA-MB-231
Protocol: (§1) After incubation, the cells were treated with various concentrations of the synthesized compounds and incubated for an additional 24 h. Following the drug treatment, 20 µL of 5 mg/mL MTT solution was added and incubated for 4 h. To dissolve the purple formazan that had formed, 100 µL dimethyl sulfoxide (DMSO) was added to each well. […] The percentage of relative cell viability was counted using the following formula (A570 of handled specimens/A570 of the unhandled specimen), multiplied by 100.

[2] = tested on: HeLa cells (epithelioid cervix carcinoma); experiment: MTT cytotoxicity assay, HeLa; format: cell-based; conditions: Homo sapiens, 24 h treatment, read-out: In Vitro Cytotoxicity IC50 Hela
Protocol: as §1

[3] = tested on: HepG2 cells (hepatocellular carcinoma); experiment: MTT cytotoxicity assay, HepG2; format: cell-based; conditions: Homo sapiens, HepG2, 24 h, 24 h treatment, read-out: In Vitro Cytotoxicity IC50 HepG2
Excerpt: (§2) The in vitro cytotoxicity for the final target compounds, 4(a–d), 5(a–f), and 6(a–b), was preliminarily evaluated via the MTT colorimetric assay against a panel of four human cell lines, namely, the hepatocellular carcinoma (HepG2), mammary gland (MCF-7), breast cancer (MDA-MB-231) and epithelioid cervix carcinoma (HeLa).
(§3) The cytotoxicity of the target hybrids was examined by an MTT assay against HepG2, HeLa, MCF-7, and MDA-MB-231. At first, the RPMI-1640 medium with 10% fetal bovine serum was used to cultivate the cell lines. Then, antibiotics (penicillin (100 units/mL) and streptomycin (100 µg/mL)) were added in a 37 °C incubator in 5% CO2. The cell lines were seeded in a 96-well plate at a density of 1.0 × 10^4 cells/well at 37 °C under 5% CO2 for 48 h. After incubation, the cells were treated with various concentrations of the synthesized compounds and incubated for an additional 24 h. Following the drug treatment, 20 µL of 5 mg/mL MTT solution was added and incubated for 4 h. To dissolve the purple formazan that had formed, 100 µL dimethyl sulfoxide (DMSO) was added to each well. At a wavelength of 570 nm, the colorimetric assay was recorded and measured, using a plate reader BioTek EXL 800 (Agilent Technologies, Inc., Santa Clara, CA, USA). The percentage of relative cell viability was counted using the following formula (A570 of handled specimens/A570 of the unhandled specimen), multiplied by 100. The results of the cytotoxicity value were presented as the median growth inhibitory concentration (IC50) of the reagents compared to the control.

[4] = tested on: MCF-7 cells (mammary gland cancer); experiment: MTT cytotoxicity assay, MCF-7; format: cell-based; conditions: Homo sapiens, MCF7, 24 h treatment, read-out: In Vitro Cytotoxicity IC50 MCF-7
Protocol: as §1

[5] = tested on: HepG2, MCF-7, MDA-MB-231 and HeLa cell lines; experiment: MTT cytotoxicity assay, panel of four cell lines; format: cell-based; conditions: Homo sapiens, range over HepG2, MCF-7, MDA-MB-231, HeLa, read-out: IC50 values, range over the tested cell lines
Excerpt: as §2, §3

SMILES | melting point [°C] | IC50 [1] [µM] | IC50 [2] [µM] | IC50 [3] [µM] | IC50 [4] [µM] | IC50 [5] [µM]
O=C(CSc1nc2ccccc2o1)NN=Cc1ccc(Cl)c(Cl)c1 (mixture of isomers) [Compound 4a, (E/Z)-N′-(3,4-dichlorobenzylidene)-2-(benzo[d]oxazol-2-ylthio)acetohydrazide] | 193 to 195 | 75.5 ± 3.6 | 67.6 ± 3.4 | 81.2 ± 3.7 | 74.2 ± 3.5 | 
O=C(CSc1nc2ccccc2o1)NN=Cc1ccc(OC(F)(F)F)cc1 (mixture of isomers) [Compound 4b, (E/Z)-N′-(4-(trifluoromethoxy)benzylidene)-2-(benzo[d]oxazol-2-ylthio)acetohydrazide] | 154 to 156 | 9.72 ± 0.7 | 19.3 ± 1.6 | 13.1 ± 1.1 | 15.2 ± 1.2 | 
N#Cc1ccc(C=NNC(=O)CSc2nc3ccccc3o2)cc1 (mixture of isomers) [Compound 4c, (E/Z)-N′-(4-cyanobenzylidene)-2-(benzo[d]oxazol-2-ylthio)acetohydrazide] | 246 to 248 | 21.1 ± 1.6 | 35.2 ± 2.5 | 34.5 ± 2.2 | 38.6 ± 2.5 | 
COc1cc(C=NNC(=O)CSc2nc3ccccc3o2)ccc1O (mixture of isomers) [Compound 4d, (E/Z)-N′-(4-hydroxy-3-methoxybenzylidene)-2-(benzo[d]oxazol-2-ylthio)acetohydrazide] | 150 to 153 | 4.93 ± 0.2 | 12.9 ± 0.9 | 9.37 ± 0.7 | 11.1 ± 0.9 | 2.14 to 12.9
O=C(CSc1nc2ccccc2o1)NN=Cc1cccs1 (mixture of isomers) [Compound 6a, (E/Z)-2-(benzo[d]oxazol-2-ylthio)-N′-((thiophen-2-yl)methylene)acetohydrazide] | 218 to 221 | 30.8 ± 2.2 | 46.4 ± 2.7 | 26.4 ± 1.8 | 42.9 ± 2.8 | 
COc1ccc2c(c1)C(=NNC(=O)CSc1nc3ccccc3o1)C(=O)N2 [Compound 5d, (E/Z)-2-(benzo[d]oxazol-2-ylthio)-N′-(5-methoxy-2-oxoindolin-3-ylidene)acetohydrazide] | 145 to 147 | 8.44 ± 0.6 | 6.27 ± 0.7 | 10.5 ± 0.9 | 7.58 ± 0.6 | 2.14 to 12.9
O=C(CSc1nc2ccccc2o1)NN=C1C(=O)Nc2ccc(F)cc21 [Compound 5f, (E/Z)-2-(benzo[d]oxazol-2-ylthio)-N′-(5-fluoro-2-oxoindolin-3-ylidene)acetohydrazide] | 225 to 227 | 68.1 ± 3.5 | 59.2 ± 3.1 | 63.7 ± 3.2 | 70.3 ± 3.3 | 

Second part, led by results:

melting point [°C] | SMILES | IC50 [1] [µM] | IC50 [2] [µM] | IC50 [3] [µM] | IC50 [4] [µM] | IC50 [5] [µM]
223 to 225 | O=C(CSc1nc2ccccc2o1)NN=C1C(=O)Nc2ccccc21 [Compound 5a, (E/Z)-2-(benzo[d]oxazol-2-ylthio)-N′-(2-oxoindolin-3-ylidene)acetohydrazide] | 14.6 ± 1.2 | 28.9 ± 2 | 18 ± 1.3 | 23.5 ± 1.8 | 
230 to 233 | Cc1ccc2c(c1)C(=NNC(=O)CSc1nc3ccccc3o1)C(=O)N2 [Compound 5b, (E/Z)-2-(benzo[d]oxazol-2-ylthio)-N′-(5-methyl-2-oxoindolin-3-ylidene)acetohydrazide] | 36.2 ± 2.4 | 31.5 ± 2.3 | 41.7 ± 2.4 | 27.4 ± 2 | 
165 to 167 | O=C(CSc1nc2ccccc2o1)NN=C1C(=O)Nc2ccc([N+](=O)[O-])cc21 [Compound 5c, (E/Z)-2-(benzo[d]oxazol-2-ylthio)-N′-(5-nitro-2-oxoindolin-3-ylidene)acetohydrazide] | 62.4 ± 3.1 | 50.6 ± 2.9 | 56.2 ± 2.9 | 48.3 ± 2.8 | 
264 to 267 | O=C(CSc1nc2ccccc2o1)NN=C1C(=O)Nc2ccc(Cl)cc21 [Compound 5e, (E/Z)-2-(benzo[d]oxazol-2-ylthio)-N′-(5-chloro-2-oxoindolin-3-ylidene)acetohydrazide] | 51.5 ± 2.8 | 58.4 ± 3.2 | 45.2 ± 2.7 | 53 ± 3.1 | 
